From paper PMC12514245, “Impaired migration and lung invasion of human melanoma by a novel small molecule targeting the transmembrane domain of death receptor p75^NTR” (EMBO Molecular Medicine, 2025)

Molecular target: T1, full-length p75^NTR in COS cells (Rattus norvegicus, UniProt P07174)
T1 construct: COS cells expressing full length, GFP-tagged rat p75^NTR; expressed in transfected cells; host or cells: COS-7
T1 sequence (P07174 30-425): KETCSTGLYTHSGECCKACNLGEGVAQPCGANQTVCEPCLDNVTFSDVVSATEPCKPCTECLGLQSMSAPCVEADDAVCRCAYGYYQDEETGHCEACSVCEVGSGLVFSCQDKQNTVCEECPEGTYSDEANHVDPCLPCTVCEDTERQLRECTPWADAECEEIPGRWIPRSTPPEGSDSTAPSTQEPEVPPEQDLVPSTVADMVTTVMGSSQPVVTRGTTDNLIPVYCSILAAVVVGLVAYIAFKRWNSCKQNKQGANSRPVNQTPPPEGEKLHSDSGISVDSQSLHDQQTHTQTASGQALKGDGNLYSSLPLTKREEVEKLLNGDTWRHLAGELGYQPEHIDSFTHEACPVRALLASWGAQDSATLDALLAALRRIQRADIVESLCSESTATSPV
Test: Live cell homo-FRET anisotropy, wild-type p75NTR
Format: cell-based
Set-up: key to average anisotropy change, wt: fold change vs mean of 6 pre-treatment time points (baseline ≈ 100)
Conditions: for average anisotropy change, wt: 10 μM
Description: Previous real-time homo-FRET anisotropy studies by ours as well as other laboratories have shown that the intracellular death domains of p75^NTR are associated with each other (high FRET, low anisotropy state) under basal conditions (Vilar et al, [2009]; Sykes et al, [2012]), but neurotrophin binding induces transient separation of p75^NTR death domains (low FRET, high anisotropy state) manifested as oscillations in real-time anisotropy measurements (Lin et al, [2015]; Tanaka et al, [2016]; Goh et al, [2018]). COS cells expressing full length, GFP-tagged rat p75^NTR were treated with vehicle or Div17E5 and changes in anisotropy levels were recorded over time.
Anisotropy imaging in COS-7 cells that were transfected with a rat p75^NTR-EGFP* fusion construct was done as previously described (Goh, Lin et al, [2018]). EGFP* carries a […] mutation rendering monomeric EGFP. Changes in anisotropy were expressed as fold change at each time point (every 30 s) in comparison to the mean of 6 time points obtained prior to addition of treatment. Images were acquired using Nikon Ti-E based live cell epi-fluorescence microscope and MetaMorph software and analyzed using MatLab from Mathworks.

Structure (SMILES): Oc1ccc(-c2cncc(Nc3ccc(Br)c(Cl)c3)n2)cc1 [Div17E5]
- real-time homo-FRET anisotropy (10 µM): induced oscillations in real-time anisotropy
- average anisotropy change, wt (0 min after compound addition): 106
- average anisotropy change, wt (0.5 min after compound addition): 88
- average anisotropy change, wt (1 min after compound addition): 110
- average anisotropy change, wt (1.5 min after compound addition): 101
- average anisotropy change, wt (2 min after compound addition): 115
- average anisotropy change, wt (2.5 min after compound addition): 82
- average anisotropy change, wt (3 min after compound addition): 112
- average anisotropy change, wt (3.5 min after compound addition): 105
- average anisotropy change, wt (4 min after compound addition): 80
- average anisotropy change, wt (4.5 min after compound addition): 111
- average anisotropy change, wt (5 min after compound addition): 83
- average anisotropy change, wt (5.5 min after compound addition): 99
- average anisotropy change, wt (6 min after compound addition): 121
- average anisotropy change, wt (6.5 min after compound addition): 122
- average anisotropy change, wt (7 min after compound addition): 100
- average anisotropy change, wt (7.5 min after compound addition): 100
- average anisotropy change, wt (8 min after compound addition): 74
- average anisotropy change, wt (8.5 min after compound addition): 96
- average anisotropy change, wt (9 min after compound addition): 96
- average anisotropy change, wt (9.5 min after compound addition): 103
- average anisotropy change, wt (10 min after compound addition): 99
- average anisotropy change, wt (10.5 min after compound addition): 110
- average anisotropy change, wt (11 min after compound addition): 95
- average anisotropy change, wt (11.5 min after compound addition): 89
- average anisotropy change, wt (12 min after compound addition): 110
- average anisotropy change, wt (12.5 min after compound addition): 95
- average anisotropy change, wt (13 min after compound addition): 108
- average anisotropy change, wt (13.5 min after compound addition): 110
- average anisotropy change, wt (14 min after compound addition): 100
- average anisotropy change, wt (14.5 min after compound addition): 105
- average anisotropy change, wt (15 min after compound addition): 94
- average anisotropy change, wt (-0.5 min after compound addition): 104
- average anisotropy change, wt (-1 min after compound addition): 103
- average anisotropy change, wt (-1.5 min after compound addition): 97
- average anisotropy change, wt (-2 min after compound addition): 101
- average anisotropy change, wt (-2.5 min after compound addition): 97
- average anisotropy change, wt (-3 min after compound addition): 98
